Assay results as given in doi:10.1101/2025.02.01.636040v1 (bioRxiv, 2025).

Tests used:
[1] = target: T1, CHIKVP (Chikungunya virus, UniProt Q8JUX6); settings: 500 μM peptide, 5 μM CHIKVP, 1 hour, LC-MS extracted ion chromatograms
[2] = target: T1, CHIKVP; settings: 500 µM of each peptide mixed, 5 µM CHIKVP, 10 minutes, LC-MS/UV peak area
[3] = target: T1, CHIKVP; settings: 300 µM CHIKVP, 1.5 mM peptide, 10 min, 298 K, 75 mM deuterated Tris pH 7.5

T1 sequence (Q8JUX6 1004-1327 limits assumed): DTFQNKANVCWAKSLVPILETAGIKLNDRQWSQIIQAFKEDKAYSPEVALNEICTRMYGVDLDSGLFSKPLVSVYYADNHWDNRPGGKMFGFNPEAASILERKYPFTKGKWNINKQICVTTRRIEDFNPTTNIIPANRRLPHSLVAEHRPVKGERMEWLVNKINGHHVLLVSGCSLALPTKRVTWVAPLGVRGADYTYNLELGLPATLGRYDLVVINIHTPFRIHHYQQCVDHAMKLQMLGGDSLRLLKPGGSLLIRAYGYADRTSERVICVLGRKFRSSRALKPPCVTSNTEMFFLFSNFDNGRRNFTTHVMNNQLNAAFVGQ

Row | Substance | cleavage by CHIKVP by LC-MS [1] | decrease in peak area [2] [%] | binding to CHIKVP from 1H-NMR line broadening [3]
1 | VEQLEDRAGA/GIIGGSRR | effectively cleaved | 52.7 | 
2 | DELRLDRAGG/YIFSS | effectively cleaved | 54.1 | more potent binder of CHIKVP
